Measured values reported in US8987243B2, “11-(2-pyrrolidin-1-yl-ethoxy)-14,19-dioxa-5,7,26-triaza-tetracyclo[19.3.1.1(2,6).1(8,12)]heptacosa-maleate salt” (CTI Biopharma Corp., priority 2008, dated 2015).
Where a name gives a salt, the structure may show the parent alone.

Legend:
Assay type in all cases: physicochemical
[1] = Gravimetric Vapour Sorption (GVS), with XRPD post GVS; settings: for solid form / crystalline pattern by XRPD post GVS: compared with starting material
[2] = Thermal gravimetric analysis (TGA); settings: for water lost in the first phase of the TGA: hydrochloride
Procedure: The samples of both hydrochloride (comparative) and maleate salts were subjected to thermal gravimetric analysis and differential scanning calorimetry under the following conditions. DSC data were collected on a TA Instruments Q2000 equipped with a 50 position auto-sampler. The instrument was calibrated for energy and temperature calibration using certified indium. Typically 0.5-3 mg of each sample, in a pin-holed aluminium pan, was heated at 10° C.·min^−1 from 25° C. to 270° C.
TGA data were collected on a TA Instruments Q500 TGA, equipped with a 16 position auto-sampler. The instrument was temperature calibrated using certified Alumel. Typically 5-30 mg of each sample was loaded onto a pre-tared platinum crucible and aluminium DSC pan, and was heated at 10° C.·min^−1 from ambient temperature to 300° C. A nitrogen purge at 60 ml·min^−1 was maintained over the sample. The instrument control software was Thermal Advantage v4.6.6 and the data were analysed using Universal Analysis v4.3A. Alternatively, TGA data were collected on a Mettler TGA/SDTA 851e equipped with a 34 position auto-sampler. The instrument was temperature calibrated using certified indium. Typically 5-30 mg of each sample was loaded onto a pre-weighed aluminium crucible and was heated at 10° C.·min^−1 from ambient temperature to 300° C. A nitrogen purge at 50 ml·min^−1 was maintained over the sample. The instrument control and data analysis software was STARe v9.01.

[3] = Stress tests: storage at elevated temperature and humidity, analysed by XRPD
Procedure: The group three material was stressed under conditions which might cause it to convert to group one material or, indeed, another hydrated or polymorphic form. Thus samples were stored at 40° C./75% RH and also at 60° C./96% RH and analysed at regular intervals by XRPD.
The stability of the maleate salt form A material was tested in harsher conditions, when the samples were kept for a week in the humidity chamber at 60° C. and 96% RH.
The samples of both hydrochloride (comparative) and maleate salts were subjected to X-ray diffraction to determine the characteristic X-ray diffraction pattern. The conditions used were as follows: X-Ray Powder Diffraction patterns were collected on a Siemens D5000 diffractometer using Cu Kα radiation (40 kV, 40 mA), θ-θ goniometer, divergence of V20 and receiving slits, a graphite secondary monochromator and a scintillation counter. The instrument is performance checked using a certified Corundum standard (NIST 1976).

[4] = Variable temperature X-ray diffraction; settings: variable temperature XRPD
Procedure: Samples run under non-ambient conditions were mounted on a silicon wafer with heat-conducting compound. The sample was then heated to the appropriate temperature at ca. 10° C.·min^−1 and subsequently held isothermally for ca 2 minutes before data collection was initiated. In order to probe the stability of the samples of the maleate salts variable temperature X-ray diffraction was carried out. Thus, the salts were scanned under X-ray diffraction conditions at a series of temperatures and the characteristic peaks determined.

[5] = Maturation studies in 27 solvents, solids analysed by XRPD; settings: 4 h heat/cool cycles 50° C./r.t., 24 h
Procedure: In order to determine the propensity of polymorphism for the maleate salt the material was maturated in 27 different solvents. A small amount of solid was slurried with the corresponding solvent (see Table 4 below) and stored in the incubator and subjected to 4 h-heat/cool cycles at 50° C./r.t. for 24 h. The solvents were then removed under vacuum, and the remaining solids analysed by XRPD.

Q: For `C1=CCOCc2cc(ccc2OCCN2CCCC2)Nc2nccc(n2)-c2cccc(c2)COC1.Cl` [Batch HCl 1, 11-(2-pyrrolidin-1-yl-ethoxy)-14,19-dioxa-5,7,26-triaza-tetracyclo[19.3.1.1(2,6).1(8,12)]heptacosa-1(25),2(26),3,5,8,10,12(27),16,21,23-decaene hydrochloride], which “mass regained on going to 40% RH” value ([1]; GVS, after dryness) is on record?
A: The value was 2%.

Q: And the “adsorption of water in the initial adsorption cycle” value ([1]; GVS, at 90% RH)?
A: Its value is 5.5%.

Q: What about the “total gain of mass” value ([1]; GVS, whole experiment) of the same compound?
A: The value was 2%.

Q: What about the “water content after the gain” value ([1]; GVS, corresponds to a dihydrate) of the same compound?
A: Its value is 6.5%.

Q: And the “mass lost on going from 90% RH to dryness” value ([1]; GVS, hydrochloride)?
A: The value was 5%.

Q: And the “two stage weight loss, total” value ([2]; TGA, up to 100° C.)?
A: Its value is 4.5%.

Q: Which “water lost in the first phase of the TGA” value ([2]; TGA) does the source give for `C1=CCOCc2cc(ccc2OCCN2CCCC2)Nc2nccc(n2)-c2cccc(c2)COC1.Cl` [Batch HCl 2, 11-(2-pyrrolidin-1-yl-ethoxy)-14,19-dioxa-5,7,26-triaza-tetracyclo[19.3.1.1(2,6).1(8,12)]heptacosa-1(25),2(26),3,5,8,10,12(27),16,21,23-decaene hydrochloride] here?
A: Its value is 5.6%.

Q: For `C1=CCOCc2cc(ccc2OCCN2CCCC2)Nc2nccc(n2)-c2cccc(c2)COC1.Cl` [Batch HCl 3, 11-(2-pyrrolidin-1-yl-ethoxy)-14,19-dioxa-5,7,26-triaza-tetracyclo[19.3.1.1(2,6).1(8,12)]heptacosa-1(25),2(26),3,5,8,10,12(27),16,21,23-decaene hydrochloride], which “total weight lost in the TGA” value ([2]; TGA) is on record?
A: The value was 3.4%.

Q: And the “another loss” value ([2]; TGA, at 165° C.)?
A: The value was 1.97%.

Q: And the “water lost in the first phase of the TGA” value ([2]; TGA)?
A: Its value is 1.5%.

Q: For `C1=CCOCc2cc(ccc2OCCN2CCCC2)Nc2nccc(n2)-c2cccc(c2)COC1.Cl` [Batch HCl 4, 11-(2-pyrrolidin-1-yl-ethoxy)-14,19-dioxa-5,7,26-triaza-tetracyclo[19.3.1.1(2,6).1(8,12)]heptacosa-1(25),2(26),3,5,8,10,12(27),16,21,23-decaene hydrochloride], which “mass gained on going from 40% RH to 90% RH (water absorption)” value ([1]; GVS) is on record?
A: Its value is 1.6%.

Q: And the “mass lost on going from 90% RH to dryness” value ([1]; GVS, hydrochloride)?
A: The value was 2.8%.

Q: And the “solid form / crystalline pattern by XRPD post GVS” value ([1]; hydrochloride)?
A: Its value is “unchanged”.

Q: What about the mass lost ([2]; TGA, between ambient and 108° C.) of the same compound?
A: Its mass lost is 6.5%.

Q: Which “mass gained on going from 40% RH to 90% RH (water absorption)” value ([1]; GVS) does the source give for `C1=CCOCc2cc(ccc2OCCN2CCCC2)Nc2nccc(n2)-c2cccc(c2)COC1.Cl` [Batch HCl 6, 11-(2-pyrrolidin-1-yl-ethoxy)-14,19-dioxa-5,7,26-triaza-tetracyclo[19.3.1.1(2,6).1(8,12)]heptacosa-1(25),2(26),3,5,8,10,12(27),16,21,23-decaene hydrochloride] here?
A: Its value is 1.6%.

Q: And the “mass lost on going from 90% RH to dryness” value ([1]; GVS, hydrochloride)?
A: Its value is 2.4%.

Q: And the “solid form / crystalline pattern by XRPD post GVS” value ([1]; hydrochloride)?
A: The value was “unchanged”.

Q: And the “solid form by XRPD after storage” value ([3]; 40° C./75% RH, 0 hrs)?
A: Its value is “Group three”.

Q: And the “solid form by XRPD after storage” value ([3]; 40° C./75% RH, 24 hrs)?
A: Its value is “Group three”.

Q: What about the “solid form by XRPD after storage” value ([3]; 40° C./75% RH, 48 hrs) of the same compound?
A: Its value is “Group three”.

Q: And the “solid form by XRPD after storage” value ([3]; 40° C./75% RH, 72 hrs)?
A: The value was “Group one”.

Q: And the “solid form by XRPD after storage” value ([3]; 60° C./96% RH, 0 hrs)?
A: Its value is “Group three”.

Q: And the “solid form by XRPD after storage” value ([3]; 60° C./96% RH, 24 hrs)?
A: The value was “Group one”.

Q: What about the “weight loss in the TGA” value ([2]; until degradation at around 240° C.) of the same compound?
A: Its value is “very little weight loss”.

Q: What does the source list for `C1=C/COCc2cc(ccc2OCCN2CCCC2)Nc2nccc(n2)-c2cccc(c2)COC/1` [maleate salt, 11-(2-pyrrolidin-1-yl-ethoxy)-14,19-dioxa-5,7,26-triaza-tetracyclo[19.3.1.1(2,6).1(8,12)]heptacosa-1(25),2(26),3,5,8,10,12(27),16,21,23-decaene]?
A: hygroscopicity ([1]; GVS): low hygroscopicity; weight taken up in water ([1]; GVS, between 0 and 90% RH): less than 0.6%; solid form / crystalline pattern by XRPD post GVS [1]: No changes; changes in the crystalline pattern after storage ([3]; a week in the humidity chamber at 60° C. and 96% RH): no changes; change of X-ray diffraction pattern with temperature [4]: no change; weight loss in the TGA ([2]; until the salt melts with decomposition at 200° C.): no weight loss; Solid Form after maturation ([5]; 1,4-dioxane): Form A; Solid Form after maturation ([5]; 1-butanol): Form A; Solid Form after maturation ([5]; 1-pentanol): Form A; Solid Form after maturation ([5]; 1-propanol): Form A; Solid Form after maturation ([5]; 2-butanol): Form A; Solid Form after maturation ([5]; 2-methoxy ethanol): Form A; Solid Form after maturation ([5]; 3-methyl-1-butanol): Form A; solid forms identified after maturation, all cases ([5]; 27 different solvents): only one solid form; Solid Form after maturation ([5]; Acetonitrile): Form A; Solid Form after maturation ([5]; Cyclohexane): Form A; Solid Form after maturation ([5]; DMSO): Form A; Solid Form after maturation ([5]; Dicloromethane): Form A; Solid Form after maturation ([5]; Ethanol): Form A; Solid Form after maturation ([5]; Ethyl acetate): Form A; Solid Form after maturation ([5]; Heptane): Form A; Solid Form after maturation ([5]; IPA): Form A; Solid Form after maturation ([5]; Isobutyl acetate): Form A; Solid Form after maturation ([5]; Isopropyl acetate): Form A; Solid Form after maturation ([5]; Methyl isobutyl ketone): Form A; Solid Form after maturation ([5]; Methylethyl ketone): Form A; Solid Form after maturation ([5]; Nitromethane): Form A; Solid Form after maturation ([5]; Propyl acetate): Form A; Solid Form after maturation ([5]; TBME): Form A; Solid Form after maturation ([5]; Tetrahydrofuran): Form A; Solid Form after maturation ([5]; Toluene): Form A; Solid Form after maturation ([5]; Water): Form A; Solid Form after maturation ([5]; acetone): Form A; Solid Form after maturation ([5]; methanol): Form A
